{"source": "the OPERA property sets (Mansouri et al. 2018)"}
{"units": {"melting point": "°C", "boiling point": "°C"}}
{"smiles": "CC(=O)O[C@H]1C[C@@]2(C)[C@@H](C[C@@H](O)[C@H]3[C@@]4(C)CC[C@@H](O)[C@@H](C)[C@@H]4CC[C@@]32C)/C1=C(\\CCC=C(C)C)C(=O)O", "melting point": 192}
{"smiles": "O=C(Cc1ccccc1)Cc1ccccc1", "boiling point": 331, "log10 vapour pressure (mmHg)": -3.13, "melting point": 35}
{"smiles": "CCCC(C)CBr", "note": "(configuration not stated)", "boiling point": 141}
{"smiles": "CCc1cc(C(N)=S)ccn1", "melting point": 163}
{"smiles": "Cn1ccc(=O)c2ccccc21", "melting point": 152}
{"smiles": "C[C@@H]1CC[C@H](C)c2ccccc21", "boiling point": 226}
{"smiles": "CCCCCC(=O)CCCCC", "boiling point": 228, "log10 vapour pressure (mmHg)": -1.3, "melting point": 14.5, "ready biodegradability": "readily biodegradable"}
{"smiles": "CC1COC(Cn2cncn2)(c2ccc(Oc3ccc(Cl)cc3)cc2Cl)O1", "note": "(configuration not stated)", "log10 vapour pressure (mmHg)": -9.6, "melting point": 76}
{"smiles": "CCCCCCCCOC=O", "boiling point": 199, "melting point": -39.1}
{"smiles": "Cc1ccc(N(CCO)CCO)cc1", "boiling point": 339}
{"smiles": "O=NN(CCCl)C(=O)NCCCl", "melting point": 31}
{"smiles": "OCCCCCCCCCCCl", "melting point": 12.5}
{"smiles": "CCCCCCCCCCC1CCCCC1", "boiling point": 299, "log10 vapour pressure (mmHg)": -2.99, "melting point": -1.7}
{"smiles": "C[Si](C)(C)OS(=O)(=O)C(F)(F)F", "boiling point": 140}
{"smiles": "Clc1ccc2c(Cl)c(Cl)c(Cl)c(Cl)c2c1", "log10 vapour pressure (mmHg)": -5.96}
{"smiles": "C/C=C/C(=O)c1ccccc1", "melting point": 20.5}
{"smiles": "CC(=O)Nc1ccc2c(c1)Cc1ccccc1-2", "boiling point": 303, "log10 Koc (L/kg)": 3.14, "melting point": 193}
{"smiles": "C[C@H](N[C@@H](C)c1ccccc1)c1ccccc1", "boiling point": 296}
{"smiles": "C1=CC=CC=CC=C1", "boiling point": 140, "log10 vapour pressure (mmHg)": 0.892, "melting point": -4.7}
{"smiles": "O=C(O)CSc1ncccn1", "ready biodegradability": "readily biodegradable"}
{"smiles": "CCCCCCOC(=O)CCCCC", "boiling point": 246, "melting point": -55}
{"smiles": "BrC1c2ccccc2-c2ccccc21", "melting point": 104}
{"smiles": "CC(=O)Oc1cccc(C(=O)O)c1OC(C)=O", "melting point": 149}
{"smiles": "Oc1cccc(Br)c1", "boiling point": 236, "melting point": 33, "ready biodegradability": "not readily biodegradable"}
{"smiles": "C1SSCSSS1", "melting point": 60.5}
{"smiles": "NC(=O)Nc1ccc2ccccc2c1", "melting point": 219}
{"smiles": "CC1(C)NC(=O)NC1=O", "melting point": 178}
{"smiles": "O=C1CCCCO1", "boiling point": 219, "melting point": -12.5}
{"smiles": "Clc1cccc(Oc2ccccc2)c1", "log10 vapour pressure (mmHg)": -2.42}
{"smiles": "CCn1cc(C(=O)O)c(=O)c2ccc(C)nc21", "melting point": 230}
{"smiles": "COCC(C)=O", "boiling point": 116}
{"smiles": "CC(C)C(O)CO", "note": "(configuration not stated)", "boiling point": 206}
{"smiles": "IC1CCCC1", "boiling point": 166}
{"smiles": "CCOC(=O)C(F)F", "boiling point": 100}
{"smiles": "OC(O)C(Br)(Br)Br", "melting point": 53.5}
{"smiles": "CC(C)CC(=O)C(C)C", "boiling point": 148}
{"smiles": "C=C(C)C(=O)OCCCCOC(=O)C(=C)C", "melting point": 226}
{"smiles": "CCCOC(=O)NCCCN(C)C.Cl", "log10 vapour pressure (mmHg)": -6.54, "melting point": 64.2}
{"smiles": "c1ccc2c(c1)ccc1ccccc12", "boiling point": 340, "log10 Henry constant (atm·m³/mol)": -4.37, "log10 Koa": 7.57, "log10 Koc (L/kg)": 4.35, "log10 biodegradation half-life (days)": 1.62, "log10 vapour pressure (mmHg)": -3.92, "melting point": 99.2, "ready biodegradability": "readily biodegradable"}
{"smiles": "BrC1CCCCC1", "boiling point": 166, "melting point": -56.5}
{"smiles": "COCc1ccccc1", "boiling point": 170, "log10 vapour pressure (mmHg)": 0.22, "melting point": -52.6}
{"smiles": "O=NN1CN2CN(C1)CN(N=O)C2", "melting point": 204, "ready biodegradability": "readily biodegradable"}
{"smiles": "Clc1c(Br)c(Br)c2c(c1Br)Oc1c(Br)c(Br)c(Cl)c(Br)c1O2", "log10 vapour pressure (mmHg)": -12.5, "melting point": 385}
{"smiles": "C=CC(C)(CCC=C(C)C)OC(=O)C(C)C", "note": "(configuration not stated)", "boiling point": 229}
{"smiles": "CCCC1CCCCC1C", "note": "(configuration not stated)", "boiling point": 176}
{"smiles": "Nc1cc(Cl)ccc1[N+](=O)[O-]", "melting point": 128}
{"smiles": "CCCCCCCCCCCCCCCCCCCCCl", "log10 vapour pressure (mmHg)": -5.62}
{"smiles": "CCCCCCCCCCCCOC(=O)c1ccc(N)cc1", "melting point": 82}
{"smiles": "NC12CC3CC(CC(C3)C1)C2", "melting point": 180}
{"smiles": "SCCCS", "boiling point": 173, "melting point": -79}
{"smiles": "CC(=O)C(C)(C)C(C)=O", "boiling point": 173, "melting point": 19}
{"smiles": "CCCCSC#N", "boiling point": 186}
{"smiles": "O=C(O)c1cc(Cl)cc(Cl)c1O", "melting point": 220}
{"smiles": "CCOC(=O)OCC", "boiling point": 126, "log10 vapour pressure (mmHg)": 1.03, "melting point": -43}
{"smiles": "COC(=O)c1ccccc1O", "boiling point": 223, "log10 vapour pressure (mmHg)": -1.46, "melting point": -8}
{"smiles": "CC(C)CC#N", "boiling point": 128, "melting point": -101}
{"smiles": "CCCCCCCCCCCCC1=C(OC(C)=O)C(=O)c2ccccc2C1=O", "melting point": 59.6}
{"smiles": "C=C(C)C(=O)OCC", "boiling point": 117, "log10 vapour pressure (mmHg)": 1.31}
{"smiles": "CC(Oc1c(Cl)cccc1Cl)C1=NCCN1", "note": "(configuration not stated)", "melting point": 127}
{"smiles": "Nc1cccc(N)c1N", "boiling point": 336, "melting point": 103}
{"smiles": "CC(C)=CC(C)(C)C", "boiling point": 105, "log10 vapour pressure (mmHg)": 1.56, "melting point": -106}
{"smiles": "CC(C)(O)CCC(C)(C)O", "boiling point": 214, "melting point": 92}
{"smiles": "Clc1cc2oc3c(Cl)cc(Cl)c(Cl)c3c2cc1Cl", "log10 vapour pressure (mmHg)": -8.82, "melting point": 237}
{"smiles": "CCCCCCCCCCCCCCc1ccccc1", "boiling point": 359, "log10 vapour pressure (mmHg)": -4.62, "melting point": 16}
{"smiles": "COc1ccc(Cl)c(N)c1", "melting point": 27}
{"smiles": "COOC", "boiling point": 14}
{"smiles": "CNC(=O)N(C)C", "boiling point": 232, "melting point": 75.5}
{"smiles": "C[C@H](N)Cc1ccccc1", "boiling point": 203}
{"smiles": "CC(C)(C)C(=O)CC#N", "melting point": 71}
{"smiles": "CCOC(=O)c1cnn(C)c1S(=O)(=O)NC(=O)Nc1nc(OC)cc(OC)n1", "melting point": 182}
{"smiles": "C=C(C)[C@H](C)O", "boiling point": 114}
